Entries after “also recorded” stand apart in the source; their conditions may differ.
Experiments:
Format in all cases: cell-based, human
[1] = tested on: GCLC (glutamate-cysteinyl ligase); test: Real time PCR of glutamate-cysteinyl ligase (GCLC) in FT-skin model; details: 1% Biomass or GABA 1 mm dose, from 8 h
Excerpt: (§1) 2) The ‘full thickness skin model’ (FT) (Phenion GmbH & Co., Frankfurt am Main, Germany) is a multi-layer human skin model consisting of keratinocytes and fibroblasts stemming from the same donor. After a culture period of five weeks, the ‘full thickness’ was fully developed and comprised epidermis, basal membrane and derma. The model was characterized with respect to the expression of fundamental markers of differentiation at the epidermis level (cytokeratin 10, philagrin, transglutaminase and involucrin), at the derma-epidermis junctions (laminin and collagen IV) and at dermal level (elastin fibronectin). The diameter of the model FT is of 1.3 cm.
(§2) In this study the following genes were employed:
(§3) The technique employs Taqman probes for detecting the fluorescent signal and it is very sensitive, consisting in the amplification and quantification of a specific sequence of nucleic acids. The detection of the PCR product occurs in real time. The quantification of DNA, cDNA or RNA is carried out by determining the cycle in which he PCR product can be detected for the first time, thus not at the moment when the reaction has become saturated. The quantification of the product occurs through the detection of fluorescence measured in each cycle; the strength of the signal is directly proportional to the amount of the amplified product. […]
(§4) Each biological sample is evaluated in triple tests. […]

[2] = tested on: GSS (glutatione synthetase); test: Real time PCR of glutatione synthetase (GSS) in FT-skin model; details: 24 hours, expression values very low and meaningless
Excerpt: as §1, §2, §3, §4

[3] = tested on: hyaluronate synthetase (HAS1); test: Real time PCR of hyaluronate synthetase (HAS1) in FT-skin model
Excerpt: as §1, §2, §3, §4

philagrin (FLG) = test: Real time PCR of philagrin (FLG) in FT-skin model
Excerpt: as §1, §2, §3, §4

involucrin (IVL) = test: Real time PCR of involucrin (IVL) in FT-skin model; details: 8, 24, 48 and 72 hours, repeated application for 3 days
Excerpt: as §1, §2, §3, §4

- GCLC gene expression (RT-PCR) [1]: No gene modulation
- GSS gene modulation (RT-PCR) [2]: just as a tendency
- hyaluronate synthetase (HAS) expression with respect to control sample ([3]; 24 hours, 1% Biomass or GABA 1 mm dose, high standard deviation): increased
- hyaluronate synthetase (HAS) expression ([3]; 48 hours, GABA 1 mm dose): increased
SMILES: NCCCC(=O)O [GABA, gamma-aminobutyric acid]
- philagrin gene over-expression (philagrin (FLG); 24 hours): evident
- philagrin gene over-expression (philagrin (FLG); 72 hours (repeated application for 3 days)): significative increase
- involucrin gene modulation (involucrin (IVL)): no significative modulation; also recorded: unmodulated
